{"source": "patent US12097179B2", "about": "“Carbazole derivatives for the treatment of fibrotic diseases and related symptoms, and conditions thereof” (Raziel Therapeutics Ltd., priority 2015, dated 2024)", "key": {"kidney fibrosis": {"tested_on": "kidney fibrosis", "assay": "Unilateral ureteral ligation (UUO) kidney fibrosis model", "type": "in vivo, rat", "conditions": "male SD rats, RZL-012 15 mg s.c. into fat at Day 14 and Day 42, sacrifice 8 weeks after UUO, vs Vehicle", "experimental": "• Animals: Male SD Rats, 250 g. • Induction of kidney fibrosis: Overnight fasted rats were anesthetized (a mixture of Ketamine 20 mg/kg and Xylazin 2 mg/kg IP). The abdominal cavity was exposed via a midline incision up to 0.5-1 cm before penis about 3 cm along. Then the bladder was lifted out and epididymal fat was remoted. The left ureter was ligated at two points with 4-0 sutures. The wound was closed in layers with the same sutures. Then animals were returned to the cages. […] The tissue sections were stained with Masson-Trichrome which enable a distinction between fibrotic tissue (staining collagen fiber in Blue) and normal viable tissue (Purple-Red) (see FIG. 6C). • Quantification of kidney fibrosis: In order to quantify, in an unbiased way, the fibrotic response in RZL-treated vs. non-treated rats, the dimensions of the fibrotic layer surrounding aortic blood vessel, were measured. All aortic vessels in each affected kidney were analyzed in the following way: The vessel wall consists of two components, the usual Muscular layer and an outer layer, excessively rich in collagen, in these kidneys, hereby defined as “Adventitia” (FIG. 6C). The net width of the adventitia and that of the Muscular layer were calculated as follows: […]"}, "scar formation in pigs": {"tested_on": "scar formation in pigs", "assay": "Remote effect of local s.c. fat injection on scar formation in pigs (RZL-012 vs Kythera/Kybella)", "type": "in vivo", "conditions": "pig; for Collagen fibers in scar-tissue (H & E histology): compared with Kythera scar tissue", "source_text": "The objective of this study is to evaluate the remote effect on local injection of RZL-012 of the invention (5-(3,6-dibromo-9H-carbazol-9-yl)-N,N,N-trimethylpentan-1-aminium) into the s.c. fat, on scar formation in pigs, compared with Kybella (an injectable formulation of Deoxycholate developed by Kythera) an agent that bluntly destroys s.c. fat.\n• 1. Kythera preparation (according to published formulation): an aqueous solution of 5% Phosphatidylcholine, 4.75% Sodium deoxycholate and 0.9% Benzyl Alcohol. • 2. RZL-012 of the invention (5-(3,6-dibromo-9H-carbazol-9-yl)-N,N,N-trimethylpentan-1-aminium) of the invention preparation: 5.0% (w/v) RZL-012 in the below indicated formulation: […]\nEighty kilogram pigs were injected with either Kythera or RZL-012 of the invention preparation, into the s.c. fat (1 cm depth, 27 G needle), at 10 sites, divided into two clusters, on the right flank only. The injection at each site was of a volume of 0.5 ml. In addition, a cut through the s.c. fat was made at the midline of each pig at the right and at the left flank.\nAnimals were housed in the animal unit of Biotechfarm, Israel and fed on a diet weighing 2% of body weight (B.W.) per day divided to two meals, based on the last effective weekly body weighing.\nAfter 2 months from the day of treatment, the animals were sacrificed; the scars on both sides were photographed before and after making a cross section in the middle of each scar. Thereafter, tissue samples of all cross-sections were formalin-fixed and processed for H & E histology staining."}}, "data": [{"smiles": "C[N+](C)(C)CCCCCn1c2ccc(Br)cc2c2cc(Br)ccc21", "note": "[RZL-012, 5-(3,6-dibromo-9H-carbazol-9-yl)-N,N,N-trimethylpentan-1-aminium]", "values": [{"measurement": "Kidney fibrosis (Adventitia/Muscular layers ratio, Masson-Trichrome)", "setting": "kidney fibrosis", "result": "significant inhibition of kidney fibrosis"}, {"measurement": "Macroscopic view of the scar at the left, non-treated side", "setting": "scar formation in pigs; 2 months after s.c. fat injection on right flank only, external view, compared with Kythera treated pig", "result": "much finer"}, {"measurement": "Scar tissue seen after a cross section through the scar (macroscopic)", "setting": "scar formation in pigs; 2 months sacrifice, cross-section through the middle of the scar, non-treated side (L)", "result": "no apparent scare tissue was observed"}, {"measurement": "Difference in the scar tissue width", "setting": "scar formation in pigs; 2 months, H & E histology, careful measurement, RZL-012 vs Kythera treated pig", "result": "4-5 times"}, {"measurement": "Collagen fibers in scar-tissue (H & E histology)", "setting": "scar formation in pigs; 2 months, X20 objective magnification", "result": "less collagen fibers"}, {"measurement": "Collagen fibers in scar-tissue (H & E histology)", "setting": "scar formation in pigs; 2 months, X40 objective magnification", "result": "less collagen fibers"}, {"measurement": "Width of fibrotic tissue (scar histology, H & E)", "setting": "scar formation in pigs; 2 months, both sides, X10 objective magnification, RZL-012 vs Kythera treated pig", "result": "much thinner"}]}]}
